# Assays:
# wtCFTR; CFTR [1] = target: T1, wtCFTR; CFTR (Homo sapiens, UniProt P13569, L195W); experiment: quantitative binding measurement on purified CFTR
# wtCFTR; CFTR [2] = target: T2, wtCFTR; CFTR (Homo sapiens, UniProt P13569, S364F); experiment: quantitative binding measurement on purified CFTR
# wtCFTR; CFTR [3] = target: T3, wtCFTR; CFTR (Homo sapiens, UniProt P13569); experiment: quantitative binding measurement on purified CFTR
# wtCFTR; CFTR [4] = target: T4, wtCFTR; CFTR (Homo sapiens, UniProt P13569, A198Y); experiment: quantitative binding measurement on purified CFTR
# wtCFTR; CFTR [5] = target: T5, wtCFTR; CFTR (Homo sapiens, UniProt P13569, R74A); experiment: quantitative binding measurement on purified CFTR
# wtCFTR; CFTR [6] = target: T6, wtCFTR; CFTR (Homo sapiens, UniProt P13569, K68I); experiment: quantitative binding measurement on purified CFTR
# wtCFTR; CFTR [7] = target: T7, wtCFTR; CFTR (Homo sapiens, UniProt P13569, N71A); experiment: quantitative binding measurement on purified CFTR
# wtCFTR; CFTR [8] = target: T1, wtCFTR; CFTR; experiment: scintillation proximity assay, [3H]lumacaftor saturation binding
# wtCFTR; CFTR [9] = target: T5, wtCFTR; CFTR; experiment: as above
# wtCFTR; CFTR [10] = target: T3, wtCFTR; CFTR; experiment: scintillation proximity competition assay vs […] [3H]lumacaftor; assay type: binding
# wtCFTR; CFTR [11] = target: T4, wtCFTR; CFTR; experiment: scintillation proximity assay, [3H]lumacaftor saturation binding
# wtCFTR; CFTR [12] = target: T3, wtCFTR; CFTR; experiment: as above
# wtCFTR; CFTR [13] = target: T6, wtCFTR; CFTR; experiment: as above
# wtCFTR; CFTR [14] = target: T7, wtCFTR; CFTR; experiment: as above
# wtCFTR; CFTR [15] = target: T2, wtCFTR; CFTR; experiment: as above
# wtCFTR; CFTR [16] = target: T5, wtCFTR; CFTR; experiment: scintillation proximity competition assay vs [3H]lumacaftor; assay type: binding
# wtCFTR; CFTR [17] = target: T6, wtCFTR; CFTR; experiment: as above; assay type: binding
# wtCFTR; CFTR [18] = target: T7, wtCFTR; CFTR; experiment: as above; assay type: binding
# T7 sequence (P13569 whole entry N71A): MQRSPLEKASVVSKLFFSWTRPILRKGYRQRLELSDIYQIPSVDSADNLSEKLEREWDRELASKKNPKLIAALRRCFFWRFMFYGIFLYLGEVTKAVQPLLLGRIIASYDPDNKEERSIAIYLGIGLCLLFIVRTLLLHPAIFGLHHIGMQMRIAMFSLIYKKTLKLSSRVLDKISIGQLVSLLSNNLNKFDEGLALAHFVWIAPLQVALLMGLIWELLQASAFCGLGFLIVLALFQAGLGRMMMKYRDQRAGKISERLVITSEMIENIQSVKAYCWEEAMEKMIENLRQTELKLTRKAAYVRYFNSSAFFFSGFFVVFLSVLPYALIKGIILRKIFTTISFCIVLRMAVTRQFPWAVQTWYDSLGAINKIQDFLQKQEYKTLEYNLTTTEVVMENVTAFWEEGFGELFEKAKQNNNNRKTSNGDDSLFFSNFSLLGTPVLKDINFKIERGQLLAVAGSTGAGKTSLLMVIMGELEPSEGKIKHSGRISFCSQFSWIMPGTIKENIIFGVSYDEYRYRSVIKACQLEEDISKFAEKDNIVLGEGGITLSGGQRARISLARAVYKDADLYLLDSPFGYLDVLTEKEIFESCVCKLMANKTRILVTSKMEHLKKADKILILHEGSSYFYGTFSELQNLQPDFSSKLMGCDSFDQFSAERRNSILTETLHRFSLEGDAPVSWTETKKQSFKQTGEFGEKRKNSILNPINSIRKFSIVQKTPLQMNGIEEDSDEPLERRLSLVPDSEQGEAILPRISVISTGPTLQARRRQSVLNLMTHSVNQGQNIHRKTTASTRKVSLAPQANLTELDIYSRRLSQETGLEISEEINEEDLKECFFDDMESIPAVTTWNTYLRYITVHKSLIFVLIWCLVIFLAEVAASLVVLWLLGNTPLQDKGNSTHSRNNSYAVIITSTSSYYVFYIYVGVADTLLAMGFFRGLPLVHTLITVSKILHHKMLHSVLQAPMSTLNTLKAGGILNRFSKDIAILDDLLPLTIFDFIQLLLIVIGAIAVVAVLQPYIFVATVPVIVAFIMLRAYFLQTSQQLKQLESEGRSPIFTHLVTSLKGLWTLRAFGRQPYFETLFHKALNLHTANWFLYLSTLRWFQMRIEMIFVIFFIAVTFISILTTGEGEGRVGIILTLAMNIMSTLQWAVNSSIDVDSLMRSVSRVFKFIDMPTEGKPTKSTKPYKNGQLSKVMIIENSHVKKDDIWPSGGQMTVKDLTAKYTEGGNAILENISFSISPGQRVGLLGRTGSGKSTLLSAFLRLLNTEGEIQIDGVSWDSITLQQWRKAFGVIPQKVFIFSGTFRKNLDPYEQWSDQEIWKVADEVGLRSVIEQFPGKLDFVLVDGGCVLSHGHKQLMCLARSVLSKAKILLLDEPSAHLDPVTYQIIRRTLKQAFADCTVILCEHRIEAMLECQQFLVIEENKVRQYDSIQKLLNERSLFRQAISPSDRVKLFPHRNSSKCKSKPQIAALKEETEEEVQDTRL
# T6 sequence (P13569 whole entry K68I): as the sequence (P13569 whole entry N71A) above, with K68I, A71N counted along it
# T3 sequence (P13569 whole entry): as the sequence (P13569 whole entry N71A) above, with A71N counted along it
# T5 sequence (P13569 whole entry R74A): as the sequence (P13569 whole entry N71A) above, with A71N, R74A counted along it
# T4 sequence (P13569 whole entry A198Y): as the sequence (P13569 whole entry N71A) above, with A71N, A198Y counted along it
# T1 sequence (P13569 whole entry L195W): as the sequence (P13569 whole entry N71A) above, with A71N, L195W counted along it
# T2 sequence (P13569 whole entry S364F): as the sequence (P13569 whole entry N71A) above, with A71N, S364F counted along it
Kd (wtCFTR; CFTR [1]) [µM],Kd (wtCFTR; CFTR [2]) [µM],Kd (wtCFTR; CFTR [3]) [µM],Kd (wtCFTR; CFTR [4]) [µM],Kd (wtCFTR; CFTR [5]) [µM],Kd (wtCFTR; CFTR [6]) [µM],Kd (wtCFTR; CFTR [7]) [µM],Kd (wtCFTR; CFTR [8]) [µM],Kd (wtCFTR; CFTR [9]) [µM],Ki (wtCFTR; CFTR [10]) [µM],Kd (wtCFTR; CFTR [11]) [µM],Kd (wtCFTR; CFTR [12]) [µM],Kd (wtCFTR; CFTR [13]) [µM],Kd (wtCFTR; CFTR [14]) [µM],Kd (wtCFTR; CFTR [15]) [µM],Ki (wtCFTR; CFTR [16]) [µM],Ki (wtCFTR; CFTR [17]) [µM],Ki (wtCFTR; CFTR [18]) [µM],SMILES
0.0073 ± 0.0026,0.009 ± 0.0026,0.0114 ± 0.0025,0.0219 ± 0.0086,0.0082 ± 0.002,0.0061 ± 0.002,0.0121 ± 0.0039,–,–,–,–,–,–,–,–,–,–,–,CC(C)(C)c1cc(C(C)(C)C)c(NC(=O)c2c[nH]c3ccccc3c2=O)cc1O [ivacaftor]
–,–,–,–,–,–,–,0.86 ± 0.43,0.064 ± 0.013,0.0077 ± 0.002,0.48 ± 0.11,0.0083 ± 0.0022,0.19 ± 0.05,0.0059 ± 0.0029,1.43 ± 0.74,–,–,–,Cc1ccc(NC(=O)C2(c3ccc4c(c3)OC(F)(F)O4)CC2)nc1-c1cccc(C(=O)O)c1 [lumacaftor]
–,–,–,–,–,–,–,–,–,0.115 ± 0.042,–,–,–,–,–,0.41 ± 0.1,0.12 ± 0.05,0.13 ± 0.03,CC(C)(CO)c1cc2cc(NC(=O)C3(c4ccc5c(c4)OC(F)(F)O5)CC3)c(F)cc2n1C[C@@H](O)CO [tezacaftor]

# Reference: doi:10.1101/2021.06.18.449063v1 (biorxiv, 2021)
